Patent US20210269848A1, “COMPOSITION OF MICROORGANISMS INDICATING DECONTAMINATION” (NOVOLYZE, priority 2018, published 2021)

Key:
E. faecium ATCC 8459 [1] = experiment: Log loss after heat treatment on nonfat dried milk NFDM; format: cell-based; details: 3% dye
Description: (§1) “Log loss” refers to the difference between initial viability and viability at a given time.
(§2) The test is performed for the following 3 strains: E. faecium ATCC 8459, P. agglomerans CNCM I-5055 and A. pascens CNCM I-5181.
(§3) Addition of 10% of pure lyophilisate of the strains to 5 g of maltodextrin. Vortexing for homogenization. […] Vortexing. Addition of 1% of the dyed strain mixture diluted 1/10 to 5 g NFDM. Vortexing. Deposition of 0.1 g in Eppendorf tubes then heat treatment of the tubes in a dry bath at 90 and 100° C. for 2, 5 and 10 minutes

A. pascens CNCM I-5181 [2] = experiment: as above; format: cell-based; details: 3% dye
Description: as §1, §2, §3

[3] = system: P. agglomerans CNCM I-5055; experiment: as above; format: cell-based; details: 3% dye
Description: as §1, §2, §3

E. faecium ATCC 8459 [4] = experiment: Log loss after heat treatment on black pepper; format: cell-based; details: 3% dye
Description: as §1
(§4) The test is performed for the following 3 strains: E. faecium ATCC 8459, P. agglomerans CNCM I-5055 and A. pascens CNCM I-5181
as §3, with “of black pepper followed by a spray of wet fixing agent for good adhesion. Mixing with a sterile spatula. Drying 2 h.” for “NFDM. Vortexing.”, “0.2” for “0.1”

A. pascens CNCM I-5181 [5] = experiment: Log loss after heat treatment on black pepper; format: cell-based; details: 3% dye
Description: as §1, §4
as §3, with “of black pepper followed by a spray of wet fixing agent for good adhesion. Mixing with a sterile spatula. Drying 2 h.” for “NFDM. Vortexing.”, “0.2” for “0.1”

[6] = system: P. agglomerans CNCM I-5055; experiment: Log loss after heat treatment on black pepper; format: cell-based; details: 3% dye
Description: as §1, §4
as §3, with “of black pepper followed by a spray of wet fixing agent for good adhesion. Mixing with a sterile spatula. Drying 2 h.” for “NFDM. Vortexing.”, “0.2” for “0.1”

E. faecium ATCC 8459 [7] = experiment: Log loss after heat treatment on macadamia; format: cell-based; details: 3% dye
Description: as §1, §2
(§5) Addition of 10% pure lyophilisate of the strains to 5 g of maltodextrin. Vortexing for homogenization. Addition of 3% of dye. Vortexing. Addition of 1% of the dyed strain mixture diluted 1/10 to 5 g of macadamia. Mixing with a sterile spatula. Drying 2 h. Deposition of 0.3 g in Eppendorf tubes then heat treatment of the tubes in a dry bath at 90 and 100° C. for 0, 2, 5, 10 minutes

A. pascens CNCM I-5181 [8] = experiment: Log loss after heat treatment on macadamia; format: cell-based; details: 3% dye
Description: as §1, §2, §5

[9] = system: P. agglomerans CNCM I-5055; experiment: Log loss after heat treatment on macadamia; format: cell-based; details: 3% dye
Description: as §1, §2, §5

Enterococcus faecium = experiment: Heat resistance (log loss) of E. faecium compositions with brilliant blue FCF at 100° C.; format: cell-based; details: 3% dye
Description: as §1
Method: The Enterococcus faecium strain in dry form was mixed with an inert support (maltodextrin) and with each dye individually. The subsequent mixture is placed in an Eppendorf tube in a dry bath at a temperature of 100° C. Samples were taken at 2, 5 and 10 min and cell counts were performed on TSA (Trypticase Soy Agar) medium for 24 h at 37° C.
Must: addition of 3% of blue dye powder to 5 mL of fermentation must in a sterile jar. Vortexing for homogenization, distribution in tubes and heat treatment.
Pure: addition of 3% of dye to 5 g of pure lyophilisate in a sterile jar. Vortexing for homogenization, distribution in tubes and heat treatment.
Support: addition of 1% of pure lyophilisate to 5 g of maltodextrin in a sterile jar (1/100 dilution). Vortexing for homogenization, then addition of 3% of dye. Vortexing then distribution in tubes and heat treatment.

For `CCN(Cc1cccc(S(=O)(=O)O)c1)c1ccc(C(=C2C=CC(=[N+](CC)Cc3cccc(S(=O)(=O)O)c3)C=C2)c2ccccc2S(=O)(=O)[O-])cc1` [brilliant blue FCF], the “effect on viability of the indicator microorganisms” value (indicator microorganisms) was “does not affect the viability of the indicator microorganisms”, the “Log loss at 90° C.” value (E. faecium ATCC 8459 [1]; 2 min) was 0.51 and the “Log loss at 100° C.” value (E. faecium ATCC 8459 [1]; 2 min) was 0.36. For the same molecule, the “Log loss at 90° C.” value (E. faecium ATCC 8459 [1]; 5 min) was 0.36, the “Log loss at 100° C.” value (E. faecium ATCC 8459 [1]; 5 min) was 0.59 and the “Log loss at 90° C.” value (E. faecium ATCC 8459 [1]; 10 min) was 0.46. The “Log loss at 100° C.” value (E. faecium ATCC 8459 [1]; 10 min) was 1.29, the “Log loss at 90° C.” value (A. pascens CNCM I-5181 [2]; 2 min) was 0.06 and the “Log loss at 100° C.” value (A. pascens CNCM I-5181 [2]; 2 min) was 0.26. For the same molecule, the “Log loss at 90° C.” value (A. pascens CNCM I-5181 [2]; 5 min) was 0.46, the “Log loss at 100° C.” value (A. pascens CNCM I-5181 [2]; 5 min) was 0.35 and the “Log loss at 90° C.” value (A. pascens CNCM I-5181 [2]; 10 min) was 0.62. For the same molecule, the “Log loss at 100° C.” value (A. pascens CNCM I-5181 [2]; 10 min) was 1.82, the “Log loss at 90° C.” value ([3]; 2 min) was 0.07 and the “Log loss at 100° C.” value ([3]; 2 min) was 0.13. For the same molecule, the “Log loss at 90° C.” value ([3]; 5 min) was 0.07, the “Log loss at 100° C.” value ([3]; 5 min) was 0.67 and the “Log loss at 90° C.” value ([3]; 10 min) was 0.37. For the same molecule, the “Log loss at 100° C.” value ([3]; 10 min) was 0.72, the “Log loss at 90° C.” value (E. faecium ATCC 8459 [4]; 2 min) was 0.31 and the “Log loss at 100° C.” value (E. faecium ATCC 8459 [4]; 2 min) was 1.35. For the same molecule, the “Log loss at 90° C.” value (E. faecium ATCC 8459 [4]; 5 min) was 0.82, the “Log loss at 100° C.” value (E. faecium ATCC 8459 [4]; 5 min) was 1.37 and the “Log loss at 90° C.” value (E. faecium ATCC 8459 [4]; 10 min) was 1.46. For the same molecule, the “Log loss at 100° C.” value (E. faecium ATCC 8459 [4]; 10 min) was 2.19, the “Log loss at 90° C.” value (A. pascens CNCM I-5181 [5]; 2 min) was 0.59 and the “Log loss at 100° C.” value (A. pascens CNCM I-5181 [5]; 2 min) was 0.27. The “Log loss at 90° C.” value (A. pascens CNCM I-5181 [5]; 5 min) was 0.76, the “Log loss at 100° C.” value (A. pascens CNCM I-5181 [5]; 5 min) was 0.64 and the “Log loss at 90° C.” value (A. pascens CNCM I-5181 [5]; 10 min) was 0.85. For the same molecule, the “Log loss at 100° C.” value (A. pascens CNCM I-5181 [5]; 10 min) was 0.85, the “Log loss at 90° C.” value ([6]; 2 min) was 1.12 and the “Log loss at 100° C.” value ([6]; 2 min) was 1.26. The “Log loss at 90° C.” value ([6]; 5 min) was 1.6, the “Log loss at 100° C.” value ([6]; 5 min) was 1.45 and the “Log loss at 90° C.” value ([6]; 10 min) was 1.77. For the same molecule, the “Log loss at 100° C.” value ([6]; 10 min) was 2.14, the “Log loss at 90° C.” value (E. faecium ATCC 8459 [7]; 2 min) was 0.2 and the “Log loss at 100° C.” value (E. faecium ATCC 8459 [7]; 2 min) was 0.24. The “Log loss at 90° C.” value (E. faecium ATCC 8459 [7]; 5 min) was 0.53, the “Log loss at 100° C.” value (E. faecium ATCC 8459 [7]; 5 min) was 0.47 and the “Log loss at 90° C.” value (E. faecium ATCC 8459 [7]; 10 min) was 1.2. For the same molecule, the “Log loss at 100° C.” value (E. faecium ATCC 8459 [7]; 10 min) was 1.24, the “Log loss at 90° C.” value (A. pascens CNCM I-5181 [8]; 2 min) was 0.25 and the “Log loss at 100° C.” value (A. pascens CNCM I-5181 [8]; 2 min) was 0.05. For the same molecule, the “Log loss at 90° C.” value (A. pascens CNCM I-5181 [8]; 5 min) was 0.18, the “Log loss at 100° C.” value (A. pascens CNCM I-5181 [8]; 5 min) was 0.12 and the “Log loss at 90° C.” value (A. pascens CNCM I-5181 [8]; 10 min) was 0.38. The “Log loss at 100° C.” value (A. pascens CNCM I-5181 [8]; 10 min) was 0.6, the “Log loss at 90° C.” value ([9]; 2 min) was 0.3 and the “Log loss at 100° C.” value ([9]; 2 min) was 0.14. The “Log loss at 90° C.” value ([9]; 5 min) was 0.6, the “Log loss at 100° C.” value ([9]; 5 min) was 0.15 and the “Log loss at 90° C.” value ([9]; 10 min) was 0.14. For the same molecule, the “Log loss at 100° C.” value ([9]; 10 min) was 1.36, the “Log loss at 100° C.” value (Enterococcus faecium; Must (fermentation must), 2 min) was 1.23 and the “Log loss at 100° C.” value (Enterococcus faecium; Must (fermentation must), 5 min) was 1.44. For the same molecule, the “Log loss at 100° C.” value (Enterococcus faecium; Must (fermentation must), 10 min) was 2.16, the “Log loss at 100° C.” value (Enterococcus faecium; Pure (lyophilisate without support), 2 min) was 0.02 and the “Log loss at 100° C.” value (Enterococcus faecium; Pure (lyophilisate without support), 5 min) was 0.17. The “Log loss at 100° C.” value (Enterococcus faecium; Pure (lyophilisate without support), 10 min) was 0.50, the “Log loss at 100° C.” value (Enterococcus faecium; Support (maltodextrin), 2 min) was 0.13 and the “Log loss at 100° C.” value (Enterococcus faecium; Support (maltodextrin), 5 min) was 0.94. For the same molecule, the “Log loss at 100° C.” value (Enterococcus faecium; Support (maltodextrin), 10 min) was 1.97.
